These results are taken from patent US7592160B2, “Processes for producing isomaltose and isomaltitol and use thereof” (Kabushiki Kaisha Hayashibara Seibutsu Kagaku Kenkyujo, priority 2001, dated 2009).

Parameters in all cases: key: −: it showed no change; +: it showed a slight reduction of the color spot of the substrate and the formation of other reaction product; ++: it showed a high reduction of the color spot of the substrate and the formation of other reaction product; +++: it showed a substantial disappearance of the substrate spot and the formation of other reaction product
Experiment [1] concerns α-isomaltosylglucosaccharide-forming enzyme. The experiment can be described thus: Action on saccharides as substrates (TLC), enzyme of C9 strain. The following applies: two units/g substrate, substrate 2% (w/v), 30° C., pH 6.0, 24 hours. Type of experiment: biochemical, Bacillus globisporus C9 strain. From the text:
(§1) To examine the saccharides in the supernatant, they were separated by developing twice on silica gel thin-layer chromatography (abbreviated as “TLC” hereinafter) using, as a developer, a mixture solution of n-butanol, pyridine, and water (=6:4:1 by volume), and, as a thin-layer plate, “[…]™ 60”, an aluminum plate (20×20 cm) for TLC commercialized by Merck & Co., Inc., Rahway, USA. The coloration of the separated total sugars by the sulfuric acid-methanol method and that of the reducing saccharides by the diphenylamine-aniline method detected a non-reducing saccharide positive at an Rf value of about 0.31 on the former detection method but negative on the latter detection method.
(§2) It was tested whether any saccharides can be used as substrates for α-isomaltosylglucosaccharide-forming enzyme. For the purpose, a solution of maltose, maltotriose, maltotetraose, maltopentaose, maltohexaose, maltoheptaose, isomaltose, isomaltotriose, panose, isopanose, α,α-trehalose, kojibiose, nigerose, neotrehalose, cellobiose, gentibiose, maltitol, maltotriitol, lactose, sucrose, erlose, selaginose, maltosyl glucoside, or isomaltosyl glucoside was prepared.
(§3) To each of the above solutions was added two units/g substrate of a purified specimen of α-isomaltosylglucosaccharide-forming enzyme from either Bacillus globisporus C9 strain obtained by the method in Experiment 4-2, Bacillus globisporus C11 strain obtained by the method in Experiment 7-2, Bacillus globisporus N75 strain obtained by the method in Experiment 11-2, or Arthrobacter globiformis A19 strain obtained by the method in Experiment 15-2, and the resulting each solution was adjusted to give a substrate concentration of 2% (w/v) and incubated at 30° C. and pH 6.0 for 24 hours, except for using pH 8.4 for the enzyme from Arthrobacter globiformis A19 strain. The enzyme solutions before and after the enzymatic reactions were respectively analyzed on TLC disclosed in Experiment 1 to confirm whether the enzymes acted on these substrates.

For experiment [2] the test system is unchanged. The experiment in a line: Action on saccharides as substrates (TLC), enzyme of C11 strain. The following applies: two units/g substrate, substrate 2% (w/v), 30° C., pH 6.0, 24 hours. Type of experiment: biochemical, Bacillus globisporus C11 strain.
Text: as §1, §2, §3

For experiment [3] the test system is unchanged. The experiment can be described thus: Action on saccharides as substrates (TLC), enzyme of N75 strain. The conditions noted are these: two units/g substrate, substrate 2% (w/v), 30° C., pH 6.0, 24 hours. Type of experiment: biochemical, Bacillus globisporus N75 strain.
Text: as §1, §2, §3

For experiment [4] the test system is unchanged. The experiment can be described thus: Action on saccharides as substrates (TLC), enzyme of A19 strain. Type of experiment: biochemical, Arthrobacter globiformis A19 strain. The conditions noted are these: two units/g substrate, substrate 2% (w/v), 30° C., pH 8.4, 24 hours.
Text: as §1, §2, §3

As for `OC[C@H]1O[C@@](CO)(O[C@H]2O[C@H](CO)[C@@H](O[C@H]3O[C@H](CO)[C@@H](O)[C@H](O)[C@H]3O)[C@H](O)[C@H]2O)[C@@H](O)[C@@H]1O` [Erlose, erlose], in experiment [1], the “Enzymatic action, Enzyme of C9 strain” value is reported as “+”. For the same compound, the “Enzymatic action, Enzyme of C11 strain” value in experiment [2] was “+”. In experiment [3], the “Enzymatic action, Enzyme of N75 strain” value was “+”. For the same compound, in experiment [4], the “Enzymatic action, Enzyme of A19 strain” value was “+”.

On to `OC[C@H]1O[C@H](O[C@H]2[C@H](O)[C@@H](O)[C@@H](OC[C@H]3OC(O)[C@H](O)[C@@H](O)[C@@H]3O)O[C@@H]2CO)[C@H](O)[C@@H](O)[C@@H]1O` (stereo partly shown) [Isopanose, isopanose], for which, in experiment [1], the “Enzymatic action, Enzyme of C9 strain” value is reported as “++”. The “Enzymatic action, Enzyme of C11 strain” value in experiment [2] is “++”. In experiment [3], the “Enzymatic action, Enzyme of N75 strain” value was “++”. Further, the “Enzymatic action, Enzyme of A19 strain” value in experiment [4] was “++”.

For `OC[C@H]1O[C@H](O[C@H]2C(O)O[C@H](CO)[C@@H](O)[C@@H]2O)[C@H](O)[C@@H](O)[C@@H]1O` (stereo partly shown) [Kojibiose, kojibiose], the “Enzymatic action, Enzyme of C9 strain” value in experiment [1] is given as “+”. Moreover, the “Enzymatic action, Enzyme of C11 strain” value in experiment [2] was “+”. In addition, the “Enzymatic action, Enzyme of N75 strain” value in experiment [3] is reported as “+”. For the same compound, the “Enzymatic action, Enzyme of A19 strain” value in experiment [4] is on record as “+”.

In the case of `OC[C@H]1O[C@H](O[C@H]2[C@H](O)[C@@H](O)[C@H](O)O[C@@H]2CO)[C@H](O)[C@@H](O)[C@@H]1O` [Maltose, maltose], the “Enzymatic action, Enzyme of C9 strain” value in experiment [1] was “+”. Besides, the “Enzymatic action, Enzyme of C11 strain” value in experiment [2] is on record as “+”. The “Enzymatic action, Enzyme of N75 strain” value in experiment [3] was “+”. Moreover, the “Enzymatic action, Enzyme of A19 strain” value in experiment [4] is reported as “+”.

Turning to `OC[C@H]1O[C@H](O[C@H]2O[C@H](CO)[C@@H](O[C@H]3O[C@H](CO)[C@@H](O)[C@H](O)[C@H]3O)[C@H](O)[C@H]2O)[C@H](O)[C@@H](O)[C@@H]1O` [Maltosyl glucoside, maltosyl glucoside], the “Enzymatic action, Enzyme of C9 strain” value in experiment [1] is reported as “++”. For the same compound, the “Enzymatic action, Enzyme of C11 strain” value in experiment [2] is “++”. Moreover, the “Enzymatic action, Enzyme of N75 strain” value in experiment [3] is “++”. Also, in experiment [4], the “Enzymatic action, Enzyme of A19 strain” value was “++”.

As for `OC[C@H]1O[C@H](O[C@H]2[C@H](O)[C@@H](O)[C@@H](O[C@H]3[C@H](O)[C@@H](O)[C@@H](O[C@H]4[C@H](O)[C@@H](O)C(O)O[C@@H]4CO)O[C@@H]3CO)O[C@@H]2CO)[C@H](O)[C@@H](O)[C@@H]1O` (stereo partly shown) [Maltotetraose, maltotetraose], the “Enzymatic action, Enzyme of C9 strain” value in experiment [1] was “+++”. In experiment [2], the “Enzymatic action, Enzyme of C11 strain” value is “+++”. Also, the “Enzymatic action, Enzyme of N75 strain” value in experiment [3] is given as “+++”. In addition, the “Enzymatic action, Enzyme of A19 strain” value in experiment [4] is listed as “+++”.

In the case of `OC[C@@H](O)[C@@H](O[C@H]1O[C@H](CO)[C@@H](O[C@H]2O[C@H](CO)[C@@H](O)[C@H](O)[C@H]2O)[C@H](O)[C@H]1O)[C@H](O)[C@@H](O)CO` [Maltotriitol, maltotriitol], in experiment [1], the “Enzymatic action, Enzyme of C9 strain” value was “+”. Moreover, in experiment [2], the “Enzymatic action, Enzyme of C11 strain” value was “+”. Besides, the “Enzymatic action, Enzyme of N75 strain” value in experiment [3] is “+”. In experiment [4], the “Enzymatic action, Enzyme of A19 strain” value is recorded as “+”.

For `OC[C@H]1O[C@@H](O[C@H]2O[C@H](CO)[C@@H](O)[C@H](O)[C@H]2O)[C@H](O)[C@@H](O)[C@@H]1O` [Neotrehalose, neotrehalose], the “Enzymatic action, Enzyme of C9 strain” value in experiment [1] is given as “+”. Further, the “Enzymatic action, Enzyme of C11 strain” value in experiment [2] is recorded as “+”. In experiment [3], the “Enzymatic action, Enzyme of N75 strain” value is on record as “+”. Besides, the “Enzymatic action, Enzyme of A19 strain” value in experiment [4] was “+”.

With `OC[C@H]1O[C@H](O[C@H]2[C@H](O)[C@@H](CO)OC(O)[C@@H]2O)[C@H](O)[C@@H](O)[C@@H]1O` (stereo partly shown) [Nigerose, nigerose], the “Enzymatic action, Enzyme of C9 strain” value in experiment [1] is “+”. In addition, in experiment [2], the “Enzymatic action, Enzyme of C11 strain” value was “+”. Also, in experiment [3], the “Enzymatic action, Enzyme of N75 strain” value is given as “+”. Also, the “Enzymatic action, Enzyme of A19 strain” value in experiment [4] is given as “+”.

Consider `OC[C@H]1O[C@H](OC[C@H]2O[C@H](O[C@H]3[C@H](O)[C@@H](O)C(O)O[C@@H]3CO)[C@H](O)[C@@H](O)[C@@H]2O)[C@H](O)[C@@H](O)[C@@H]1O` (stereo partly shown) [Panose, panose], for which the “Enzymatic action, Enzyme of C9 strain” value in experiment [1] was “−”. The “Enzymatic action, Enzyme of C11 strain” value in experiment [2] is reported as “−”. The “Enzymatic action, Enzyme of N75 strain” value in experiment [3] is “−”. In experiment [4], the “Enzymatic action, Enzyme of A19 strain” value was “−”.

Regarding `OC[C@H]1O[C@H](O[C@H]2O[C@H](CO)[C@@H](O)[C@H](O)[C@H]2O[C@H]2O[C@H](CO)[C@@H](O)[C@H](O)[C@H]2O)[C@H](O)[C@@H](O)[C@@H]1O` [Selaginose, selaginose], the “Enzymatic action, Enzyme of C9 strain” value in experiment [1] is “−”. Besides, the “Enzymatic action, Enzyme of C11 strain” value in experiment [2] was “−”. The “Enzymatic action, Enzyme of N75 strain” value in experiment [3] was “−”. Also, in experiment [4], the “Enzymatic action, Enzyme of A19 strain” value is on record as “−”.

isomaltosyl glucoside: the “Enzymatic action, Enzyme of C9 strain” value in experiment [1] is on record as “−”. For the same compound, the “Enzymatic action, Enzyme of C11 strain” value in experiment [2] is on record as “−”. For the same compound, the “Enzymatic action, Enzyme of N75 strain” value in experiment [3] is “−”. For the same compound, the “Enzymatic action, Enzyme of A19 strain” value in experiment [4] is “−”.

maltoheptaose: the “Enzymatic action, Enzyme of C9 strain” value in experiment [1] is on record as “+++”. The “Enzymatic action, Enzyme of C11 strain” value in experiment [2] is “+++”. For the same compound, the “Enzymatic action, Enzyme of N75 strain” value in experiment [3] is on record as “+++”. Further, the “Enzymatic action, Enzyme of A19 strain” value in experiment [4] is “+++”.

As for maltohexaose, in experiment [1], the “Enzymatic action, Enzyme of C9 strain” value was “+++”. For the same compound, the “Enzymatic action, Enzyme of C11 strain” value in experiment [2] is “+++”. Besides, the “Enzymatic action, Enzyme of N75 strain” value in experiment [3] is “+++”. In addition, the “Enzymatic action, Enzyme of A19 strain” value in experiment [4] is “+++”.

As to maltopentaose, the “Enzymatic action, Enzyme of C9 strain” value in experiment [1] is “+++”. The “Enzymatic action, Enzyme of C11 strain” value in experiment [2] is on record as “+++”. Also, in experiment [3], the “Enzymatic action, Enzyme of N75 strain” value was “+++”. Moreover, in experiment [4], the “Enzymatic action, Enzyme of A19 strain” value is given as “+++”.

maltotriose: the “Enzymatic action, Enzyme of C9 strain” value in experiment [1] was “++”. The “Enzymatic action, Enzyme of C11 strain” value in experiment [2] was “++”. Further, the “Enzymatic action, Enzyme of N75 strain” value in experiment [3] is recorded as “++”. Further, the “Enzymatic action, Enzyme of A19 strain” value in experiment [4] is reported as “++”.
